Test results published in patent US10132029B2, “Method for reducing adhesion of microorganisms to fabrics” (priority 2013, dated 2018).
Several values for one entry are separate records, joined by “and”; a condition that tells them apart may be missing. Equal entries are not always repeated. Where two headings read alike, the source gives them in different places.

Tests used:
Escherichia coli = assay: Bacterial adhesion to coated glass slides via fluorescence microscopy (DAPI); format: cell-based; conditions: for Reduction in cell count relative to control [%] E. coli: coated glass slide vs uncoated glass control K; for Cell count [1/cm^2] E. coli: glass slide coated from 0.1% strength solution, bacterial suspension 10^9 microbes/ml, 30 measuring windows
Description: (§1) Silane derivatives S1, S3, S4 and S5 as identified above in example 1 were used to produce coatings on glass slides. As a control (comparison sample) K, an uncoated glass slide cleaned with isopropanol was used.
(§2) For the coating of the slides they were immersed for 60 seconds into a 0.1% strength solution of the corresponding silane derivative in ethanol/water as solvent with a water fraction of 5%. The solutions had been adjusted with acetic acid beforehand to a pH in the range from 4 to 5. The wetted slides were subsequently dried at 160° C. for 1 hour.
(§3) The slides wetted with the bacterial suspension were analyzed by microscope to determine the adhering bacteria. […] The fluorescent dye used was DAPI (4′,6-diamidine-2-phenylindole), which binds to DNA and fluoresces under UV excitation. In order to determine the adhesion characteristics, the cell counts per cm^2 were ascertained in 30 measuring windows, and the adhesion pattern was evaluated. Cell attachment was evaluated on an Olympus IX 51 using the Labflow AnalySIS image processing program.
(§4) Bacterial suspensions produced and used were suspensions of test cultures of the strains Staphylococcus aureus and Escherichia coli. The concentration of the bacterial suspension was 10^9 microbes/ml.

P. aeruginosa DSMZ 1117 = format: cell-based, Pseudomonas aeruginosa; conditions: for Reduction in adhered bacteria [%] P. aeruginosa: polyester fabric, application concentration 0.1 wt %, commercial product applied directly by padding, relative to uncoated fabric; for Reduction in adhered bacteria [%]: P. aeruginosa, polyester
Experimental: (§5) Circular fabric samples with a diameter of 0.6 cm were punched from coated and uncoated cotton and polyester fabrics. The fabric samples were fixed to a microtiter plate. The fabric samples were washed with acetone and sterilized with UV light for 60 minutes.
(§6) The strains were coated fresh from glycerol bacterial cultures onto tryptic soy agar (TSA). Incubation took place overnight at 33° C. The nutrient medium prepared was a tryptic soy broth (TSB), with 30% of the amount recommended by the manufacturer, supplemented with 0.25% of glucose. […] The nutrient medium was inoculated with the bacterial cultures and after inoculation was cultivated overnight at 37° C. and 160 rpm.
(§7) The resulting overnight cultures were centrifuged at 8500 g for 15 minutes and washed with 50 ml of isotonic saline solution (0.9 wt %). Bacterial suspensions in isotonic saline solutions were prepared. The optical density of the various bacterial suspensions was determined at 595 nm and adjusted to a level of about 1.2.
(§8) 50 μl of the final microorganism suspension in isotonic saline solution (0.9 wt %) prepared as described under 2.2 were added to the coated and uncoated fabric samples fixed on the microtiter plate (see 2.1). The microtiter plates were closed and sealed off with Parafilm. The microtiter plates were placed in an antievaporation box and incubated at 33° C. for 2 h and at 40 rpm. The expected colony-forming unit count (CFU) of the inoculum at the start was 10^6-10^7 CFU/ml.
After the biofilm had formed, the planctonic cells were removed and used as a sample for determining the optical density at 595 nm. For this purpose, the samples were made up to a volume of 150 μl, and 100 μl were withdrawn for the optical density determination in a photometer. […] Through the determination of the planctonic cells after the formation of biofilm, the amount of bacteria available for adhesion was monitored.
(§9) The fabric samples and the resulting biofilm were washed three times with 200 to 300 μl of isotonic saline solution.
(§10) The fabric samples obtained under 2.4 (after formation of biofilm) were placed together with 100 μl of isotonic saline solution into wells of a 96-well microtiter plate.
(§11) Investigations into the removal of the adhered microorganisms from the fabric surfaces were carried out with vortexing, ultrasound, with enzymatic treatment, or with combinations thereof. Treatment in the vortex amounted to 5 minutes and was performed horizontally. The ultrasound treatment was carried out in an ultrasound bath for 5 minutes. For the enzymatic removal, the fabric samples were treated with enzymes, such as trypsin or a mixture of different enzymes, for example, during incubation at 37° C. for 1 hour.
(§12) Following removal of the adhered bacteria, the fabric samples were removed from the microtiter plates.
(§13) The number of removed bacteria in the resulting suspension was determined by staining with Syto9 and fluorescence measurement (fluorescence filter with excitation at 485/20 nm and emission at 528/20 nm) or by staining with BacTiterGlo and bioluminescence measurement. Furthermore, it is possible to determine the number of adhered and removed microorganisms by means of protein assay (e.g., BCA assay, Bradford Assay) or optical density proliferation assay.
The relative variables (e.g., fluorescence units (RFU)) concerning the coated and uncoated fabrics were compared, allowing the reduction in adhered bacteria in % to be determined in accordance with the following formula: Reduction in adhered bacteria[%]=[(RFUuc−RFUuc)/RFUuc]*100 where • RFUuc=relative fluorescence units of the removed bacteria of the uncoated substrate • RFUc=relative fluorescence units of the removed bacteria of the coated substrate
The commercial products described in example 1 were applied directly by a padding method to polyester fabric samples.
Bacterial adhesion to the polyester fabric samples was investigated using the microtiter plate Syto9 assay, as described in example 2.

Staphylococcus aureus [1] = format: cell-based; conditions: for Reduction in cell count relative to control [%] S. aureus: coated glass slide vs uncoated glass control K; for Cell count [1/cm^2] S. aureus: glass slide coated from 0.1% strength solution, bacterial suspension 10^9 microbes/ml, 30 measuring windows
Description: as §1, §2, §3, §4

S. aureus DSMZ 20231 = assay: Syto9 microtiter plate assay: adhesion of bacteria to coated polyester fabric samples; format: cell-based, Staphylococcus aureus; conditions: for Reduction in adhered bacteria [%] S. aureus: polyester fabric, application concentration 0.1 wt %, commercial product applied directly by padding, relative to uncoated fabric; for Reduction in adhered bacteria [%]: S. aureus, polyester
Experimental: as §5, §6, §7, §8
After the biofilm had formed, the planctonic cells were removed and used as a sample for determining the optical density at 595 nm. For this purpose, the samples were made up to a volume of 150 μl, and 100 μl were withdrawn for the optical density determination in a photometer. The optical density of the corresponding control solution with sterile isotonic saline solution was subtracted from the optical densities found. Through the determination of the planctonic cells after the formation of biofilm, the amount of bacteria available for adhesion was monitored.
as §9, §10, §11, §12, §13
The relative variables (e.g., fluorescence units (RFU)) concerning the coated and uncoated fabrics were compared, allowing the reduction in adhered bacteria in % to be determined in accordance with the following formula: Reduction in adhered bacteria[%]=[(RFUuc−RFUuc)/RFUuc]*100 where • RFUuc=relative fluorescence units of the removed bacteria of the uncoated substrate • RFUc=relative fluorescence units of the removed bacteria of the coated substrate […]

Staphylococcus aureus [2] = assay: Antimicrobial activity of coated polyester fabric samples as per JIS L 1902; format: cell-based; conditions: for Antimicrobial activity[log] Unwashed: 18 hours at 37° C.
Experimental: The procedure here is that the fabric sample was inoculated with a defined amount of a microbial suspension (inoculum). Test specimens with a weight of approximately 0.4 g were investigated in a triplicate determination.
The inoculated fabric sample was incubated in a closed system at 37° C. over a period of 18 hours. Following incubation, the bacteria of a defined amount of a dilution solution were recorded. The difference in the bacterial count of the fabric sample at 0 hours in comparison to the fabric sample after 18 hours served as a basis for evaluation. The antimicrobial activity is reported as a logarithmic or percentage value. Here, a reduction in the microbe count of 0% corresponds to inadequate antimicrobial action, a microbe reduction in the range from 0.1 to less than 90% to an inadequate antibacterial action, and a microbe reduction of greater than 90% to a good antibacterial action.

[3] = coating concentration 0.001 %, wash pretreatment (A) unwashed
[4] = coating concentration 0.001 %, wash pretreatment (B) washed twice at 30° C. only with water
[5] = coating concentration 0.01 %, wash pretreatment (A) unwashed
[6] = coating concentration 0.01 %, wash pretreatment (B) washed twice at 30° C. only with water
[7] = coating concentration 0.01 %, wash pretreatment (C) washed once at 30° C. EN ISO 6330 method 8A with ECE B detergent
[8] = coating concentration 0.1 %, wash pretreatment (A) unwashed
[9] = coating concentration 0.1 %, wash pretreatment (B) washed twice at 30° C. only with water
[10] = coating concentration 0.1 %, wash pretreatment (C) washed once at 30° C. EN ISO 6330 method 8A with ECE B detergent
[11] = coating concentration 0.001 % based on fabric
[12] = coating concentration 0.01 % based on fabric
[13] = coating concentration 0.1 % based on fabric

methoxy(polyethyleneoxy)propyltrimethoxysilane (9-12 EO units) [S1]
adhesion of bacteria to coated glass, assessment in words (Escherichia coli; both series of tests (S. aureus and E. coli), compared with glass control): very good results | Reduction in cell count relative to control [%] E. coli (Escherichia coli): 63% | Cell count [1/cm^2] E. coli (Escherichia coli): 296 000 1/cm^2 | Reduction in adhered bacteria [%] P. aeruginosa (P. aeruginosa DSMZ 1117): 41% | Reduction in cell count relative to control [%] S. aureus (Staphylococcus aureus [1]): 76% | adhesion of S. aureus to coated glass, assessment in words (Staphylococcus aureus [1]; coated glass slides): Very good results | Cell count [1/cm^2] S. aureus (Staphylococcus aureus [1]): 110 000 1/cm^2 | Reduction in adhered bacteria [%] S. aureus (S. aureus DSMZ 20231): 34%

bis[3-(triethoxysilylpropoxy)-2-hydroxypropoxy)]polyethylene oxide (5-10 EO units) [S2]
Reduction in adhered bacteria [%] (P. aeruginosa DSMZ 1117; [3]): 62% | Reduction in adhered bacteria [%] (P. aeruginosa DSMZ 1117; [4]): 87% | Reduction in adhered bacteria [%] (P. aeruginosa DSMZ 1117; coating concentration 0.001 %, wash pretreatment (C) washed once at 30° C. EN ISO 6330 method 8A with ECE B detergent): 55% | Reduction in adhered bacteria [%] (P. aeruginosa DSMZ 1117; [5]): 79% | Reduction in adhered bacteria [%] (P. aeruginosa DSMZ 1117; [6]): 36% | Reduction in adhered bacteria [%] (P. aeruginosa DSMZ 1117; [7]): 75% | Reduction in adhered bacteria [%] (P. aeruginosa DSMZ 1117; [8]): 68% | Reduction in adhered bacteria [%] (P. aeruginosa DSMZ 1117; [9]): 45% | Reduction in adhered bacteria [%] (P. aeruginosa DSMZ 1117; [10]): 75% | Reduction in adhered bacteria [%] P. aeruginosa (P. aeruginosa DSMZ 1117): 64% | Antimicrobial activity[log] Unwashed (Staphylococcus aureus [2]; [11]): 0.2 log | Antimicrobial activity[log] Washed once at 30° C., without detergent (Staphylococcus aureus [2]; [11]): −0.1 log | Antimicrobial activity[log] Washed twice with water (Staphylococcus aureus [2]; [11]): 0.1 log | Antimicrobial activity[log] Unwashed (Staphylococcus aureus [2]; [12]): −0.4 log | Antimicrobial activity[log] Washed once at 30° C., without detergent (Staphylococcus aureus [2]; [12]): −0.6 log | Antimicrobial activity[log] Washed twice with water (Staphylococcus aureus [2]; [12]): 0.1 log | Antimicrobial activity[log] Unwashed (Staphylococcus aureus [2]; [13]): −0.2 log | Antimicrobial activity[log] Washed once at 30° C., without detergent (Staphylococcus aureus [2]; [13]): −0.4 log | Antimicrobial activity[log] Washed twice with water (Staphylococcus aureus [2]; [13]): 0.00 log | Reduction in adhered bacteria [%] (S. aureus DSMZ 20231; [3]): 30% | Reduction in adhered bacteria [%] (S. aureus DSMZ 20231; [4]): 52% | Reduction in adhered bacteria [%] (S. aureus DSMZ 20231; [5]): 71% | Reduction in adhered bacteria [%] (S. aureus DSMZ 20231; [6]): 31% | Reduction in adhered bacteria [%] (S. aureus DSMZ 20231; [7]): 66% | Reduction in adhered bacteria [%] (S. aureus DSMZ 20231; [8]): 55% | Reduction in adhered bacteria [%] (S. aureus DSMZ 20231; [9]): 48% | Reduction in adhered bacteria [%] (S. aureus DSMZ 20231; [10]): 49% | Reduction in adhered bacteria [%] S. aureus (S. aureus DSMZ 20231): 85%

CCO[Si](CCCNC(=O)[C@H](O)[C@@H](O)[C@H](O)[C@H](O)CO)(OCC)OCC [S4, N-(triethoxysilylpropyl)gluconamide]
Reduction in cell count relative to control [%] E. coli (Escherichia coli): 51% | Cell count [1/cm^2] E. coli (Escherichia coli): 389 000 1/cm^2 | Reduction in adhered bacteria [%] P. aeruginosa (P. aeruginosa DSMZ 1117): 57% | adhesion pattern on microscopic inspection (Staphylococcus aureus [1]; S. aureus on coated glass surface): only a few grapelike assemblies of S. aureus | Reduction in cell count relative to control [%] S. aureus (Staphylococcus aureus [1]): 16% and 17% | Cell count [1/cm^2] S. aureus (Staphylococcus aureus [1]): 383 000 1/cm^2 | Reduction in adhered bacteria [%] S. aureus (S. aureus DSMZ 20231): 58%
